Data on one molecule can be found in patent US20090264421A1 (priority 2007, published 2009).

One may read the Km as the concentration of substrate that gives half-maximal velocity.

Each structure is given as a SMILES string.

Data set [1] has as its system patient CD138+ myeloma cells and CD138- bone marrow cells. In kind it is cell-based, human. Particulars: 10 μM for 20 minutes, corrected for average cell volumes, 4 patients. The procedure: FIG. 7. Chaetocin induces oxidative stress in A549 cells without appreciable depletion of intracellular reduced glutathione levels, while the selective cytotoxicity of chaetocin in freshly collected myeloma cells appears to be attributable to their increased sensitivity to oxidative stressors. […] Chaetocin-induced increased oxidative species are attenuated by co-treatment with 10 mM NAC (C). D. Summary of results from FACS indicating changes of oxidative species induced in response to various treatments. Results shown are representative of three independent FACS experiments as described in the text; *p<0.05, **p<0.01. E. Effects of chaetocin or hydrogen peroxide (in comparison to diluent) on ROS (superoxide) levels in U266 myeloma cells as assessed using FACS analyses and hydroethidium as an ROS-sensitive FACS probe. Error bars indicate one sample standard deviation, results replicated in triplicate; ***p<0.001. […] Glutathione levels were assessed by spectrophotometric assay as described below. […] Cells were treated with 10 μM chaetocin for 20 minutes prior to assay, and calculated intracellular chaetocin levels were measured by HPLC with adjusted for differences in average cell volume (calculated from measured cell radii ascertained via light microscopy). […]

For data set [2], the system named is RPMI 8226 myeloma xenografts. The experiment in a line: RPMI 8226 SCID mouse flank xenograft model. In kind it is in vivo. The conditions noted are these: 0.25 mg/kg intraperitoneally twice weekly, three weeks of treatment of established tumors, p<0.05. The procedure:
FIG. 4. Patient myeloma cells treated in mixed culture are selectively killed by chaetocin in comparison to other bone marrow leukocytes, and chaetocin has in vivo anti-myeloma activity. A-C. Unsorted bone marrow leukocytes obtained from 4 patients with multiple myeloma were treated with 100 nM Chaetocin or diluent for 24 hours and then subjected to FACS analyses to examine induced cell death in various leukocyte subpopulations. […] Results from 4 unsorted patient marrow leukocyte samples are indicated in C, indicating selective killing of myeloma cells by chaetocin in mixed culture in all 4 examined patient samples. In A-C, surviving cells were defined as those with low annexin and 7-AAD staining. D. Chaetocin has in vivo anti-myeloma activity in the RRMI 8226 SCID flank xenograft mouse model. […]
In vivo experiments: The in vivo effects of chaetocin were preliminarily explored at Southern Research Institute with assistance from Dr. William Waud (Birmingham, Ala.) in SCID mice using subcutaneously flank-implanted RPMI 8226 myeloma xenografts using a twice-weekly intraperitoneal administration schedule, with chaetocin formulated in 25% DMSO and 75% PEG400. Tumor weights were calculated from volumes derived from direct tumor measurements. […]

The target of a further data set is T1, TrxR1 (Rattus norvegicus, UniProt O89049).
T1 sequence (O89049 1-499): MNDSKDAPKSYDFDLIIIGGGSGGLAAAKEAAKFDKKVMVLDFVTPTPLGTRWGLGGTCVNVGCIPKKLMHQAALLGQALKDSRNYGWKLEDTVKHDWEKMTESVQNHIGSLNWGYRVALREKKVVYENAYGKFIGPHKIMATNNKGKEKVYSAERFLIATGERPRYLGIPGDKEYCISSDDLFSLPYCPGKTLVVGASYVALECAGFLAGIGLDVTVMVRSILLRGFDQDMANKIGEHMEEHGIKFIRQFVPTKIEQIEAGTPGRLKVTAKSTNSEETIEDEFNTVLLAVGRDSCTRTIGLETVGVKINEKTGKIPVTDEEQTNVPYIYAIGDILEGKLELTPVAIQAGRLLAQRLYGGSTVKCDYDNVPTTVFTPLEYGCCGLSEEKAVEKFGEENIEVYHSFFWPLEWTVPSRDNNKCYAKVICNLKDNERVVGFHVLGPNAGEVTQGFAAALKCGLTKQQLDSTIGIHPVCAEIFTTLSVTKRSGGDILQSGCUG
The conditions noted are these: substrate of TrxR1, NADPH oxidation. The source says:
Reagents: Chaetocin, β-Nicotinamide adenine dinucleotide 2′-phosphate reduced tetrasodium salt hydrate (NADPH), rat liver thioredoxin reductase, 5,5′-dithiobis(2-nitrobenzoic acid) (DTNB), oxidized glutathione (GSSG), bovine insulin, gliotoxin, thioredoxin reductase assay kit, anti-actin antibody and Celytic lysis reagent were purchased from Sigma (St. Louis, Mo.); yeast glutathione reductase and Complete Protease Inhibitor Tablets from Roche (Indianapolis, Ind.); BCA protein from Pierce (Rockford, Ill.); oxidized E. coli thioredoxin and dithiothreitol (DTT) from Promega (Madison, Wis.); verruculogen from Calbiochem (San Diego, Calif.); 4-acetamido-4′-maleimidylstilbene-2,2′-disulfonic acid (AMS) and Lipofectamine-Plus from Invitrogen (Carlsbad, Calif.); chaetomin from Alexis Biochemicals (San Diego, Calif.); and anti-thioredoxin antibody from Cell Signaling (Beverly, Mass.). HeLa cells were obtained from ATCC.
Steady-state kinetics: The 100 μL reaction consisted of 100 mM potassium phosphate (pH 7.0), 10 mM EDTA, 0.0004 U/μL thioredoxin reductase and chaetocin or other compounds as indicated. The assay was carried out in a 96-well quartz plate and the oxidation of NADPH was measured as a change in absorption at 340 nm. The initial velocities of the reaction were calculated from the decrease in the absorbance between 0 and 5 min (slope), and on a pathlength of 0.3 cm and NADPH ε=6.22 mmol^−1*cm^−1*L. The velocity versus concentration data were then analyzed using SigmaPlot's Enzyme Kinetics 1.3 program (Systat Software, San Jose, Calif.).

`CN1C(=O)[C@@]23C[C@]4([C@]56C[C@@]78SS[C@@](CO)(C(=O)N7[C@H]5Nc5ccccc56)N(C)C8=O)c5ccccc5N[C@@H]4N2C(=O)[C@]1(CO)SS3` [chaetocin]: the “intracellular accumulation in CD138- leukocytes versus CD138+ myeloma cells” value in data set [1] was “no indication of lessened intracellular accumulation”. In addition, the T/C values in data set [2] was 50-60%. The Km on TrxR1 stood at 4.6 ± 0.6 µM.
